Measurements reported in PubChem BioAssay AID330 (DTP/NCI, 2004).
“And” between values parts separate entries of the source, which are not always exact repeats. Equal values may be shown once. Inconclusive results and toxic doses are left out.

System: P388 leukemia ip, CD2F1 mice, survival T/C
Assay: NCI In Vivo Anticancer Drug Screen. Data for tumor model P388 Leukemia (intraperitoneal) in CD2F1 (CDF1) mice
Conditions: endpoint: median survival time, higher = longer survival
Procedure, shortened: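 Mice carrying the transplanted tumor received test compound or vehicle. Survival was recorded in each group, and the value is the treated-group measurement divided by that of the vehicle-treated control group.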

[1] = dose: 100.0 mg/kg/injection, schedule: Q04DX003 (ip), vehicle: saline with Tween-80
[2] = dose: 200.0 mg/kg/injection, schedule: Q04DX003 (ip), vehicle: saline with Tween-80
[3] = dose: 400.0 mg/kg/injection, schedule: Q04DX003 (ip), vehicle: saline with Tween-80
[4] = dose: 12.5 mg/kg/injection, schedule: Q01DX009 (ip), vehicle: saline with Tween-80
[5] = dose: 15.0 mg/kg/injection, schedule: Q01DX005 (ip), vehicle: saline with Tween-80
[6] = dose: 60.0 mg/kg/injection, schedule: Q01DX005 (ip), vehicle: saline with Tween-80
[7] = dose: 50.0 mg/kg/injection, schedule: Q01DX005 (ip), vehicle: saline with Tween-80

SMILES: C1CCC2(CC1)SCC1COCN12 (stereo unspecified)
- T/C [1]: 103 % of control
- T/C [2]: 97 % of control
- T/C [3]: 103 % of control

SMILES: CC(C)(C)OC(=O)C(CC(=O)O)=C(c1ccccc1)c1ccccc1
- T/C (dose: 100.0 mg/kg/injection, schedule: Q01DX009 (ip), vehicle: Klucel (hydroxypropylcellulose) (HPC)): 100 % of control
- T/C (dose: 200.0 mg/kg/injection, schedule: Q01DX009 (ip), vehicle: Klucel (hydroxypropylcellulose) (HPC)): 100 % of control
- T/C (dose: 400.0 mg/kg/injection, schedule: Q01DX009 (ip), vehicle: Klucel (hydroxypropylcellulose) (HPC)): 95 % of control

SMILES: CC1(C)CC(NC2CCCCC2)=CC(=NC2CCCCC2)N1
- T/C (dose: 6.25 mg/kg/injection, schedule: Q01DX005 (ip), vehicle: Klucel (hydroxypropylcellulose) (HPC)): 100 % of control
- T/C (dose: 12.5 mg/kg/injection, schedule: Q01DX005 (ip), vehicle: Klucel (hydroxypropylcellulose) (HPC)): 105 % of control
- T/C (dose: 25.0 mg/kg/injection, schedule: Q01DX005 (ip), vehicle: Klucel (hydroxypropylcellulose) (HPC)): 99 % of control and 101 % of control
- T/C (dose: 50.0 mg/kg/injection, schedule: Q01DX005 (ip), vehicle: Klucel (hydroxypropylcellulose) (HPC)): 100 % of control

SMILES: O=[N+]([O-])c1c(Sc2ccccc2)ncnc1Sc1ccccc1
- T/C [4]: 100 % of control
- T/C (dose: 25.0 mg/kg/injection, schedule: Q01DX009 (ip), vehicle: saline with Tween-80): 100 % of control
- T/C (dose: 50.0 mg/kg/injection, schedule: Q01DX009 (ip), vehicle: saline with Tween-80): 91 % of control
- T/C (dose: 50.0 mg/kg/injection, schedule: Q01DX009 (ip), vehicle: saline): 95 % of control

SMILES: COc1cc(O)c(/C=N/NC(=S)NC23CC4CC(CC(C4)C2)C3)c(OC)c1
- T/C (dose: 7.5 mg/kg/injection, schedule: Q01DX005 (ip), vehicle: saline with Tween-80): 105 % of control
- T/C [5]: 101 % of control and 103 % of control
- T/C [6]: 93 % of control

SMILES: NC(=O)/C=C/C(=O)c1c(Cl)cccc1Cl
- T/C (dose: 1.56 mg/kg/injection, schedule: Q01DX009 (ip), vehicle: saline with Tween-80): 113 % of control
- T/C (dose: 3.13 mg/kg/injection, schedule: Q01DX009 (ip), vehicle: saline with Tween-80): 111 % of control
- T/C (dose: 6.25 mg/kg/injection, schedule: Q01DX009 (ip), vehicle: saline with Tween-80): 94 % of control
- T/C [4]: 86 % of control and 87 % of control

SMILES: OCCNC(=S)Nc1ccccc1
- T/C (dose: 7.5 mg/kg/injection, schedule: Q01DX009 (ip), vehicle: saline with Tween-80): 104 % of control
- T/C (dose: 15.0 mg/kg/injection, schedule: Q01DX009 (ip), vehicle: saline with Tween-80): 100 % of control

SMILES: [Cu].[NH-]C1CCCC2CCC[N-]C12.[NH-]C1CCCC2CCC[N-]C12 (stereo unspecified)
- T/C (dose: 12.5 mg/kg/injection, schedule: Q04DX002 (ip), vehicle: saline with Tween-80): 106 % of control

SMILES: CC(CN(C)C)C(=O)C(=Cc1ccccc1)C(=O)C(C)CN(C)C (stereo unspecified)
- T/C (dose: 60.0 mg/kg/injection, schedule: Q01DX005 (ip), vehicle: saline): 100 % of control
- T/C (dose: 120.0 mg/kg/injection, schedule: Q01DX005 (ip), vehicle: saline): 108 % of control
- T/C (dose: 240.0 mg/kg/injection, schedule: Q01DX005 (ip), vehicle: saline): 102 % of control

SMILES: O=C(O)c1ccc2c(c1Sc1ccccc1)C(=O)c1ccccc1C2=O
- T/C (dose: 60.0 mg/kg/injection, schedule: Q01DX005 (ip), vehicle: Klucel (hydroxypropylcellulose) (HPC)): 110 % of control
- T/C (dose: 120.0 mg/kg/injection, schedule: Q01DX005 (ip), vehicle: Klucel (hydroxypropylcellulose) (HPC)): 107 % of control

SMILES: Nc1nc2c(c(=O)[nH]1)N(C(=O)CCCCCCC(=O)N1c3c(nc(N)[nH]c3=O)NCC1CNc1ccc(C(=O)NC(CCC(=O)O)C(=O)O)cc1)C(CNc1ccc(C(=O)NC(CCC(=O)O)C(=O)O)cc1)CN2 (stereo unspecified) (tested in a mixture with another compound)
- T/C [7]: 100 % of control
- T/C (dose: 100.0 mg/kg/injection, schedule: Q01DX005 (ip), vehicle: saline with Tween-80): 96 % of control
- T/C (dose: 200.0 mg/kg/injection, schedule: Q01DX005 (ip), vehicle: saline with Tween-80): 100 % of control

SMILES: CCOC(=O)c1cc(NC(C)=O)c(C)n1C
- T/C [1]: 107 % of control
- T/C [2]: 116 % of control
- T/C [3]: 112 % of control

SMILES: COc1ccc(C(c2c(O)c3ccccc3oc2=O)N2CCCC2)cc1 (stereo unspecified)
- T/C [5]: 100 % of control
- T/C (dose: 30.0 mg/kg/injection, schedule: Q01DX005 (ip), vehicle: saline with Tween-80): 100 % of control
- T/C [6]: 103 % of control and 97 % of control

SMILES: COC1(OC)CCC(=O)N(Cc2ccccc2)c2cc(C)c(N(Cc3ccccc3)S(=O)(=O)c3ccc(C)cc3)cc2C1C (stereo unspecified)
- T/C (dose: 12.5 mg/kg/injection, schedule: Q01DX005 (ip), vehicle: saline with Tween-80): 95 % of control
- T/C (dose: 25.0 mg/kg/injection, schedule: Q01DX005 (ip), vehicle: saline with Tween-80): 90 % of control
- T/C [7]: 86 % of control and 95 % of control
